One assay addresses T1, USP5 (Homo sapiens, UniProt P45974).
T1 sequence (P45974 1-858): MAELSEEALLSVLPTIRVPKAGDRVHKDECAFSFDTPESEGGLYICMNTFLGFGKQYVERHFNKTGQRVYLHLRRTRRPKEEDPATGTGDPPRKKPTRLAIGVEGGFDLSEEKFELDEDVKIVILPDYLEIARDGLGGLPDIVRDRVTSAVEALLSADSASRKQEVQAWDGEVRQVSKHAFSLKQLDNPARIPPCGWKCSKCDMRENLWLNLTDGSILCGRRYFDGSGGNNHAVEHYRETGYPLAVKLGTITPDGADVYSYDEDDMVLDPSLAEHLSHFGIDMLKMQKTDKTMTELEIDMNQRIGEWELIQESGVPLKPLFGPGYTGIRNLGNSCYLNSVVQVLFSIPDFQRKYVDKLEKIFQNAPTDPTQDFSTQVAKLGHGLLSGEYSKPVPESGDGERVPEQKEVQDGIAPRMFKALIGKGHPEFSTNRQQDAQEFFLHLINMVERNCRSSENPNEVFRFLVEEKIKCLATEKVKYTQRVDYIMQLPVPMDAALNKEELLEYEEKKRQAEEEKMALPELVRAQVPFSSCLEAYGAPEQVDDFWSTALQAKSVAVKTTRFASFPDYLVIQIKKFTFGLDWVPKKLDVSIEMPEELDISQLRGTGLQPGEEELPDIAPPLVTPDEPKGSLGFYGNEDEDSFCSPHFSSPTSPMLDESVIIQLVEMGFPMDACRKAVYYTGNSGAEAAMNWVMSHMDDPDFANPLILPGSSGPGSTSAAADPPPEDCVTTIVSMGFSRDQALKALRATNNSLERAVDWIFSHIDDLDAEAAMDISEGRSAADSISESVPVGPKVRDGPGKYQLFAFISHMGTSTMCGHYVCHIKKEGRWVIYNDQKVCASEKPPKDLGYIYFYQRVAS
The experiment in a line: USP5 activity assay (Ub-AMC substrate). Format: biochemical. The following applies: Ub-AMC 300 nM, USP5 300 pM. Here is the method: USP5 was diluted in USP buffer (50 mM Tris HCl; 0.5 mM EDTA; 5 mM DTT; 0.01% Triton X-100; Bovine Serum Albumin 0.05 mg·ml^−1 pH 7.6). Compounds stocks (100 mM) were stored at −20° C. in DMSO. Compounds were tested at different concentrations: from 200 μM to 91 nM.
Reactions were performed as duplicates in Black 384 well plates (small volume microplates; Greiner; 10 μl final reaction volume). The substrate concentration for USP5 was 300 nM Ub-AMC (Boston Biochem). The concentrations of the enzyme (USP5) in specificity assays was 300 pM. The concentrations were determined in order to perform specificity assays under initial velocities at fixed substrate concentration. Compounds were pre-incubated with enzymes for 30 minutes at 25° C. Reactions were initiated by addition of substrate to the plates containing the enzymes (+/− compounds) diluted in assay buffer. Reactions were incubated for 60 minutes at 37° C. Reactions were stopped by adding acetic acid (100 mM final). Readings were performed on a Pherastar Fluorescent Reader (BMG). λ Emission 380 nm; λ Excitation=460 nm. Data (mean values +/− standard deviation) were analyzed as % of control (no compound) and plotted as percentage versus the Log of the compound concentration using GraphPad (Prism). Data were fitted to a sigmoidal model (variable slope).

In the next assay the target is T2, UCH-L1 (Homo sapiens, UniProt P09936).
T2 sequence (P09936 1-223): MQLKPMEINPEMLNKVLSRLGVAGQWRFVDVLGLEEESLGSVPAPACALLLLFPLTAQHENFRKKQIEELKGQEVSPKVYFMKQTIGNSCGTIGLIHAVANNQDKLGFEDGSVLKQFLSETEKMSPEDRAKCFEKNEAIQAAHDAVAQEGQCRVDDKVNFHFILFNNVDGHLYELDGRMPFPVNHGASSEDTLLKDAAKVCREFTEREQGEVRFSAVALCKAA
As to the kind of experiment: UCH-L1 activity assay (Ub-AMC substrate). Format: biochemical. The note with it: Ub-AMC 300 nM, UCH-L1 2.5 nM. Here is the method:
UCH-L1 was diluted in USP buffer (50 mM Tris HCl; 0.5 mM EDTA; 5 mM DTT; 0.01% Triton X-100; Bovine Serum Albumin 0.05 mg·ml^−1 pH7.6). Compounds stocks (100 mM) were stored at −20° C. in DMSO. Compounds were tested at different concentrations: from 200 μM to 91 nM.
Reactions were performed as duplicates in Black 384 well plates (small volume microplates; Greiner; 10 μl final reaction volume). The substrate concentration for UCH-L1 was 300 nM Ub-AMC (Boston Biochem). The concentration of the enzyme (UCH-L1) in specificity assays was 2.5 nM. The concentrations were determined in order to perform specificity assays under initial velocities at fixed substrate concentration. Compounds were pre-incubated with enzymes for 30 minutes at 25° C. Reactions were initiated by addition of substrate to the plates containing the enzymes (+/− compounds) diluted in assay buffer. Reactions were incubated for 60 minutes at 37° C. Reactions were stopped by adding acetic acid (100 mM final). Readings were performed on a Pherastar Fluorescent Reader (BMG). λ Emission 380 nm; λ Excitation=460 nm. Data (mean values +/− standard deviation) were analyzed as % of control (no compound) and plotted as percentage versus the Log of the compound concentration using GraphPad (Prism). Data were fitted to a sigmoidal model (variable slope).

Molecules are shown by their SMILES. pIC50: −log10 of the molar value.

On to `COc1ccc(CN2CCC(CNC(=O)c3ccc4c(Cl)c5c(nc4c3)CCCC5)CC2)cc1` [Example 22, 9-chloro-N-((1-(4-methoxybenzyl)piperidin-4-yl)methyl)-5,6,7,8-tetrahydroacridine-3-carboxamide], for which the negative logarithm of the IC50 (pIC50) against USP5 and at UCH-L1 was < 3.70 each time.

As for `CN1CCCC1CCNC(=O)c1ccc2c(Cl)c3c(nc2c1)CCCC3` (stereo not drawn) [Example 17, 9-chloro-N-(2-(1-methylpyrrolidin-2-yl)ethyl)-5,6,7,8-tetrahydroacridino-3-carboxamide], the negative-log IC50 (pIC50) against USP5 and against UCH-L1 was < 3.70 each time.

For `CN(C)c1ccc(CN2CCC(CNC(=O)c3ccc4c(Cl)c5c(nc4c3)CCCC5)CC2)cc1` [Example 23], the negative-log IC50 (pIC50) against USP5 and against UCH-L1 was < 3.70 in each case.

With `O=C(Nc1cccc(CN2CCCC2)c1)c1ccc2c(Cl)c3c(nc2c1)CCCC3` [Example 19, 9-chloro-N-(3-(pyrrolidin-1-ylmethyl)phenyl)-5.6,7,8-tetrahydroacridine-3-carboxamide], the pIC50 at USP5 and at UCH-L1 was < 3.70 throughout.

On to `O=C(NCc1ccc(CN2CCCC2)cc1)c1ccc2c(Cl)c3c(nc2c1)CCCC3` [Example 21, 9-chloro-N-(4-(pyrrolidin-1-ylmethyl)benzyl)-5,6,7,8-tetrahydroacridine-3-carboxamide], for which the negative-log IC50 (pIC50) on USP5 and on UCH-L1 was < 3.70 in each case.

For `O=C(NCC1CCNCC1)c1ccc2c(Cl)c3c(nc2c1)CCCC3` [Example 24, 9-chloro-N-((piperidin-4-yl)methyl)-5,6,7,8-tetrahydroacridine-3-carboxamide], the pIC50 against USP5 and against UCH-L1 was < 3.70 each time.

Take `O=C(NCc1cccc(CN2CCCC2)c1)c1ccc2c(Cl)c3c(nc2c1)CCCC3` [Example 18, 9-chloro-N-(3-(pyrrolidin-1-ylmethyl)benzyl)-5,6,7,8-tetrahydroacridine-3-carboxamide]: the pIC50 against USP5 and against UCH-L1 was < 3.70 each time.

As to `CC1CCCCN1CCCNC(=O)c1ccc2c(Cl)c3c(nc2c1)CCCC3` (stereo not drawn) [Example 20, 9-chloro-N-(3-(2-methylpiperidin-1-yl)propyl)-516,7,8-tetrahydroacridine-3-carboxamide], the pIC50 against USP5 and on UCH-L1 was < 3.70 in each case.

On to `O=C(NCC(CN1CCCC1)C(O)c1ccccc1)c1ccc2c(Cl)c3c(nc2c1)CCCC3` (stereo not drawn) [Example 25, 9-chloro-N-(3-hydroxy-3-phenyl-2-pyrrolidin-1-ylmethylpropyl)-5,6,7,8-tetrahydroacridine-3-carboxamide], for which the pIC50 on USP5 and against UCH-L1 was < 3.70 each time.

For orientation: pIC50 means the negative decadic logarithm of the IC50, by convention in mol/L. A higher pIC50 goes with a low IC50.
